Source: US6900245B2, “Pharmaceutical composition comprising crystalline sibutramine methanesulfonate hemihydrate” (priority 2002, dated 2005)
Structures can show the parent of a compound that is named as a salt. Where two headings read alike, the source gives them in different places.

How the values were obtained:
[1] = Non-hygroscopic test: water content by Karl Fischer after storage at 40° C., 75% or 10% relative humidity; type: physicochemical; conditions: for water-content: 40° C.
Experimental: Crystalline sibutramine methanesulfonate hemihydrate of formula (I), sibutramine hydrochloride monohydrate (IV) and anhydrous sibutramine methanesulfonate were each exposed to a high temperature/humidity condition of 40° C. and 75% relative humidity for 1, 2, and 5 days, and the water content thereof was measured by employing Kaal-Fisher moisture analyzer.
A similar series of experiments were conducted at 40° C. and 10% relative humidity, in order to examine whether the respective compounds are stable under a relatively dry condition.

[2] = Stability on long term storage at 60° C. (residual rate); type: physicochemical
Experimental: The thermal stability of crystalline methanesulfonate hemihydrate of formula (I) during a long term storage was compared with that of the sibutramine hydrochloride monohydrate of formula (IV). The amounts of unchanged crystalline methanesulfonate hemihydrate of formula (I) and sibutramine hydrochloride monohydrate of formula (IV) at 60° C. after 1, 2, 3 and 6 months are shown in Table 3.

[3] = Solubility in water at pH 5.2 (saturation, HPLC); type: physicochemical; conditions: for solubility: pH 5.2, thermodynamic from solid, pH5.2, saturation, HPLC, based on water-free sibutramine
Description: Sibutramine methanesulfonate hemihydrate of formula (I) and sibutramine hydrochloride monohydrate were each dissolved to the saturation point at pH 5.2, and then subjected to high performance liquid chromatography (HPLC) to determine the dissolved amount (based on water-free of sibutramine).

[4] = background statement on the prior art; cited from earlier work
[5] = pH 5.2; Merck Index, 13th Ed, p1522; cited from earlier work
[6] = Exposure of anhydrous enantiomer salts to room temperature, 75% relative humidity; type: physicochemical
Description: Further, anhydrous (+)- and (−)-sibutramine methanesulfonate were each placed for 1 day at room temperature under 75% relative humidity.

[7] = tested on: overweight Zuker rats (fa/fa); test: Weight loss effect, 21 days, high-fat food; type: in vivo, rat; conditions: 3 mg/kg everyday for 21 days
Experimental: (§1) 16 each of overweight Zuker rats (fa/fa) and thin Zuker rats (Fa/Fa) were divided into drug-administrating and control groups (8 rats per group), and the weight of each rat was measured prior to the test. A 3 mg/kg dose of crystalline sibutramine methanesulfonate hemihydrate was administrated to each rat of the drug-administrating groups, whiling the vehicle was administrated to those of the control groups, everyday for 21 days. During the period, rats were allowed free access to high-fat food, and the average weights of the drug-administrating and control groups were determined in order to calculate the weight gain and loss.

thin Zuker rats (Fa/Fa) = test: Weight loss effect, 21 days, high-fat food; type: in vivo, rat; conditions: 3 mg/kg everyday for 21 days
Experimental: as §1

[8] = 10% relative humidity, storage 1 day
[9] = 10% relative humidity, storage 2 days
[10] = 10% relative humidity, storage 5 days
[11] = 75% relative humidity, storage 1 day
[12] = 75% relative humidity, storage 2 days
[13] = 75% relative humidity, storage 5 days

CC(C)CC(N(C)C)C1(c2ccc(Cl)cc2)CCC1 (stereo not shown) [sibutramine hydrochloride monohydrate, reference compound]
water-content [1, 8]: 5.40 % by weight | water-content [1, 9]: 5.36 % by weight | water-content [1, 10]: 5.36 % by weight | water-content [1, 11]: 5.40 % by weight | water-content [1, 12]: 5.45 % by weight | water-content [1, 13]: 5.48 % by weight | Residual rate after 1 month [2]: 1.000 | Residual rate after 2 months [2]: 0.999 | Residual rate after 3 months [2]: 0.999 | Residual rate after 6 months [2]: 0.992 | Initial (unchanged amount) [2]: 1.000 | solubility [3]: 2.8 mg/mL | hygroscopicity [4]: non-hygroscopic | solubility in water [5]: 2.9 mg/mL

CC(C)CC(N(C)C)C1(c2ccc(Cl)cc2)CCC1.CS(=O)(=O)O (stereo not shown) [anhydrous sibutramine methanesulfonate]
water-content [1, 8]: 0.60 % by weight | water-content [1, 9]: 0.71 % by weight | water-content [1, 10]: 0.70 % by weight | water-content [1, 11]: 0.60 % by weight | water-content [1, 12]: 2.20 % by weight | water-content [1, 13]: 2.25 % by weight

CC(C)CC(N(C)C)C1(c2ccc(Cl)cc2)CCC1.Cl (stereo not shown) [anhydrous sibutramine hydrochloride]
hygroscopicity [4]: highly hygroscopic

CC(C)CC(N(C)C)C1(c2ccc(Cl)cc2)CCC1.CS(=O)(=O)O (single isomer, unassigned; (+)) [(+)-sibutramine methanesulfonate]
state after 1 day [6]: transparent liquid

CC(C)CC(N(C)C)C1(c2ccc(Cl)cc2)CCC1 (racemic) [sibutramine methanesulfonate hemihydrate]
water-content [1, 8]: 2.27 % by weight | water-content [1, 9]: 2.25 % by weight | water-content [1, 10]: 2.26 % by weight | water-content [1, 11]: 2.27 % by weight | water-content [1, 12]: 2.30 % by weight | water-content [1, 13]: 2.30 % by weight | release of the water of crystallization ([1]; dry condition (40° C., 10% RH)): does not release the water of crystallization | hygroscopicity ([1]; high humidity condition (40° C., 75% RH)): non-hygroscopic | Residual rate after 1 month [2]: 1.001 | Residual rate after 2 months [2]: 0.999 | Residual rate after 3 months [2]: 0.999 | Residual rate after 6 months [2]: 1.000 | Initial (unchanged amount) [2]: 1.000 | stability compared with sibutramine hydrochloride monohydrate ([2]; up to 6 months): as stable as sibutramine hydrochloride monohydrate | weight loss effect as compared with the control group ([7]; Zuker rats, sentence covers overweight and thin rats): remarkable weight loss effect | The average weight after test (B) ([7]; overweight Zuker rats): 455.6 g | Weight gain (B − A) ([7]; overweight Zuker rats): 123.4 g | Weight loss effect ((Gain in weight of the control group) − (Gain in weight of the drug-administrating group)) ([7]; overweight Zuker rats): 29.6 g | The average weight after test (B) (thin Zuker rats (Fa/Fa)): 303.4 g | Weight gain (B − A) (thin Zuker rats (Fa/Fa)): 58.4 g | Weight loss effect ((Gain in weight of the control group) − (Gain in weight of the drug-administrating group)) (thin Zuker rats (Fa/Fa)): 20.4 g | solubility in water compared with sibutramine hydrochloride monohydrate of formula (IV) ([3]; pH 5.2): markedly higher solubility in water | solubility [3]: 2500 mg/mL

CC(C)CC(N(C)C)C1(c2ccc(Cl)cc2)CCC1.CS(=O)(=O)O (single isomer, unassigned; (-)) [(−)-sibutramine methanesulfonate]
state after 1 day [6]: transparent liquid
